pIC50: −log10 of the molar value.
Legend:
[1] = biological target: Replicase polyprotein 1a (Severe acute respiratory syndrome-related coronavirus) (UniProt P0C6U8); assay: Inhibition of human SARS coronavirus 3C like protease at 10 uM
Replicase polyprotein 1a = Replicase polyprotein 1a (Severe acute respiratory syndrome-related coronavirus, UniProt P0C6U8); assay: Inhibition of human SARS coronavirus 3C like protease

Row | Compound | inhibition [1] [%] | pIC50 (Replicase polyprotein 1a)
1 | O=C(CSc1nc(C2CCCCC2)nc2ccccc12)NCc1ccco1 | 30 | 4.74
2 | Cc1cc2cc(CN(CCc3ccccc3C)C(=O)NCc3ccccc3)c(=O)[nH]c2cc1C | 40 | 4.76
